The record followed here is US7015313B2, “Lectin protein prepared from Korean marine crab Philyra pisum, process for preparing the same and the use thereof” (priority 2001, dated 2006).

One assay deals with lectin PPA. Nature of the assay: Hemagglutination-inhibition assay of the lectin PPA with monosaccharide, disaccharide and glycoprotein. Type of assay: binding, Philyra pisum. As to conditions: for Erythrocyte agglutination inhibition concentration: 6.25% mouse erythrocyte, lectin PPA diluted 128-fold; for inhibition of agglutination (in words): summary of Table 2. As for the experimental part:
In order to confirm that the lectin PPA of the present invention recognizes N-glycolylneuraminic acid, hemagglutination-inhibition reaction was performed using monosaccharide, disaccharide and glycoprotein. 50 Microliters of a 128-fold diluted solution of lectin PPA in 0.15 molar NaCl and 50 microliters of each of 1 milligram per milliliter solutions of monosaccharides (e.g., β-D-glucose, D-galactose, L-fucose, D-mannose, N-acetylneuraminic acid, N-glycolylneuraminic acid, N-acetyl-D-glucosamine, N-acetyl-D-galactosamine and methyl-α-D-glucopoyranoside), disaccharide (e.g., α-lactose, β-lactose, D-lactose, βgentiobiose, maltose, D-raffinose or D-cellobiose) and glycoprotein (e.g., bovine submaxillary mucin, thyroglobulin, fetuin and asialofetuin) in 0. 15 molar NaCl were added to the each well of a 96-well microplate. After the reaction for one hour or more at room temperature, 50 microliters of the erythrocyte suspended in 0.15 molar NaCl was added to each well and reacted for one hour at room temperature.
The negative sign (−) means that there is no hemagglutination-inhibition for 100 millimolar monosaccharide/disaccharide and 100 micromolar glucoprotein. NeuGc and NeuAc represent N-glycolylneuraminic acid and N-acetylneuraminic acid, respectively.

The test system of assay [1] is peroxidase-labeled lectin PPA. Nature of the assay: ELISA with peroxidase-labeled lectin PPA on coated glycoproteins. Type of assay: binding, Philyra pisum. Conditions: 1 milligram per milliliter glycoprotein solution diluted 10^3 to 10^8-fold, FIG. 3. As for the experimental part:
In order to more accurately verify the hemagglutination-inhibition reaction of the lectin PPA, ELISA was conducted. Specifically, the lectin PPA bound to a horse radish peroxidase (HRP) was used in examining the reactivity and sensitivity against glucoproteins by ELISA. First, 5.03 milligrams of HRP were dissolved in 0.2 milliliter of a 1.25% glutaraldehyde (EM grade)-100 millimolar sodium phosphate buffer (pH 6.8) and allowed to stand for 18 hours at room temperature. Then, 20 microliters of glycerol and 20 microliters of xylene cyanol were added thereto and this was used in performing gel filtration with a SEPHADEX (TM) G-75 column equilibrated with a 100 millimolar phosphate buffer and 0.15 molar NaCl (pH 7.2). After applying the glutaraldehyde-treated HRP onto the column and eluting with 0.15 molar NaCl, about 1 milliliter of the brownish fraction containing HRP solution was collected. This fraction was dialyzed with a 100 millimolar sodium carbonate-sodium bicarbonate buffer solution (pH 9.5) containing sucrose and followed by the same buffer without sucrose. To 300 microliters of HRP thus obtained were added 150 microliters of lectin PPA (concentration of about 0.4 milligram per milliliter concentration) containing with 0.15 molar NaCl. After confirming the pH value 9.0 or more, the resultant solution was incubated for 24 hours at 4° C. to prepare peroxidase-labeled lectin PPA. In the mean time, 1 milligram of each of fetuin, asialofetuin and bovine submaxillary mucin was dissolved in 1 milliliter of PBS and serial 10-fold dilutions were made. […] Then, the absorbance at 415 nanometers of each well was measured with a microplate reader. To eliminate the error of each well caused by the time difference while adding ABTS, a second measurement was performed after 10 minutes to determine the difference in the absorbances between the time of 10 minutes and 0 minute. […] The absorbance was decreased with the lowering of the concentration.
Background: In an ELISA, binding on a coated surface is turned into a signal by an enzyme label.

Setting [2] is: monosaccharide/disaccharide tested from 100 mM.
Where [3] appears, read: glycoprotein tested from 100 micromolar.
Setting [4] is: glycoprotein, minimum concentration.

In the case of `OC[C@H]1O[C@@H](O[C@H]2[C@H](O)[C@@H](O)[C@H](O)O[C@@H]2CO)[C@H](O)[C@@H](O)[C@@H]1O` [D-cellobiose], the “Erythrocyte agglutination inhibition concentration” value with lectin PPA (setting [2]) is reported as “— (The negative sign (−) means that there is no hemagglutination-inhibition for 100 millimolar monosaccharide/disaccharide)”.
In the case of `O=C[C@H](O)[C@@H](O)[C@@H](O)[C@H](O)CO` [D-galactose], the “Erythrocyte agglutination inhibition concentration” value with lectin PPA (setting [2]) is given as “— (The negative sign (−) means that there is no hemagglutination-inhibition for 100 millimolar monosaccharide/disaccharide)”.
Turning to `OC[C@H]1O[C@@H](O[C@H]2[C@H](O)[C@@H](O)C(O)O[C@@H]2CO)[C@H](O)[C@@H](O)[C@H]1O` (stereo partly drawn) [D-lactose], in the assay with lectin PPA (setting [2]), the “Erythrocyte agglutination inhibition concentration” value was “— (The negative sign (−) means that there is no hemagglutination-inhibition for 100 millimolar monosaccharide/disaccharide)”.
For `O=C[C@@H](O)[C@@H](O)[C@H](O)[C@H](O)CO` [D-mannose], the “Erythrocyte agglutination inhibition concentration” value in the assay on lectin PPA (setting [2]) is on record as “— (The negative sign (−) means that there is no hemagglutination-inhibition for 100 millimolar monosaccharide/disaccharide)”.
Turning to `OC[C@H]1O[C@H](OC[C@H]2O[C@H](O[C@]3(CO)O[C@H](CO)[C@@H](O)[C@@H]3O)[C@H](O)[C@@H](O)[C@@H]2O)[C@H](O)[C@@H](O)[C@H]1O` [D-raffinose], the “Erythrocyte agglutination inhibition concentration” value in the assay with lectin PPA (setting [2]) is given as “— (The negative sign (−) means that there is no hemagglutination-inhibition for 100 millimolar monosaccharide/disaccharide)”.
Turning to `C[C@H](O)[C@@H](O)[C@@H](O)[C@H](O)C=O` [L-fucose], the “Erythrocyte agglutination inhibition concentration” value with lectin PPA (setting [2]) is “— (The negative sign (−) means that there is no hemagglutination-inhibition for 100 millimolar monosaccharide/disaccharide)”.
The same measure, in the same setting: the same measure for `OC[C@H]1O[C@H](O[C@H]2[C@H](O)[C@@H](O)[C@H](O)O[C@@H]2CO)[C@H](O)[C@@H](O)[C@@H]1O` [Maltose]: “— (The negative sign (−) means that there is no hemagglutination-inhibition for 100 millimolar monosaccharide/disaccharide)”; for `CO[C@H]1O[C@H](CO)[C@@H](O)[C@H](O)[C@H]1O` [Methyl-α-D-glucopyranoside]: “— (The negative sign (−) means that there is no hemagglutination-inhibition for 100 millimolar monosaccharide/disaccharide)”; for `CC(=O)N[C@H]1C(O)O[C@H](CO)[C@H](O)[C@@H]1O` (stereo partly drawn) [N-acetyl-D-galactosamine]: “— (The negative sign (−) means that there is no hemagglutination-inhibition for 100 millimolar monosaccharide/disaccharide)”.
On the same count and under the same terms, next, `CC(=O)N[C@H]1C(O)O[C@H](CO)[C@@H](O)[C@@H]1O` (stereo partly drawn) [N-acetyl-D-glucosamine]: “— (The negative sign (−) means that there is no hemagglutination-inhibition for 100 millimolar monosaccharide/disaccharide)”; `CC(=O)N[C@H]1[C@H]([C@H](O)[C@H](O)CO)OC(O)(C(=O)O)C[C@@H]1O` (some centres unmarked) [N-acetylneuraminic acid]: “— (The negative sign (−) means that there is no hemagglutination-inhibition for 100 millimolar monosaccharide/disaccharide)”.
Regarding `O=C(CO)N[C@H]1[C@H]([C@H](O)[C@H](O)CO)OC(O)(C(=O)O)C[C@@H]1O` (some centres unmarked) [N-glycolylneuraminic acid], the “Erythrocyte agglutination inhibition concentration” value in the assay on lectin PPA (monosaccharide/disaccharide, minimum concentration) was found to be 190 µM. Also, the “inhibition of agglutination (in words)” value in the assay on lectin PPA is “inhibited the agglutination”.
Take `OC[C@H]1O[C@@H](O)[C@H](O)[C@@H](O)[C@@H]1O` [beta.-D-glucose]: the “Erythrocyte agglutination inhibition concentration” value with lectin PPA (setting [2]) is recorded as “— (The negative sign (−) means that there is no hemagglutination-inhibition for 100 millimolar monosaccharide/disaccharide)”.
Regarding `OC[C@H]1O[C@@H](O[C@H]2[C@H](O)[C@@H](O)[C@@H](O)O[C@@H]2CO)[C@H](O)[C@@H](O)[C@H]1O` [α-lactose], in the assay with lectin PPA (setting [2]), the “Erythrocyte agglutination inhibition concentration” value is listed as “— (The negative sign (−) means that there is no hemagglutination-inhibition for 100 millimolar monosaccharide/disaccharide)”.
In the case of `OC[C@H]1O[C@@H](OC[C@H]2O[C@@H](O)[C@H](O)[C@@H](O)[C@@H]2O)[C@H](O)[C@@H](O)[C@@H]1O` [β-gentiobiose], the “Erythrocyte agglutination inhibition concentration” value in the assay on lectin PPA (setting [2]) is reported as “— (The negative sign (−) means that there is no hemagglutination-inhibition for 100 millimolar monosaccharide/disaccharide)”.
As for `OC[C@H]1O[C@@H](O[C@H]2[C@H](O)[C@@H](O)[C@H](O)O[C@@H]2CO)[C@H](O)[C@@H](O)[C@H]1O` [β-lactose], in the assay with lectin PPA (setting [2]), the “Erythrocyte agglutination inhibition concentration” value was “— (The negative sign (−) means that there is no hemagglutination-inhibition for 100 millimolar monosaccharide/disaccharide)”.
On to “Asialofetuin: glycoprotein without sialic acid, does not contain N-glycolylneuraminic acid”, for which the “ELISA response (absorbance at 415 nanometers)” value (from here on “ELISA response”) in assay [1] is given as “no response occurred”. Moreover, in the assay on lectin PPA (setting [3]), the “Erythrocyte agglutination inhibition concentration” value is “— (The negative sign (−) means that there is no hemagglutination-inhibition for 100 millimolar monosaccharide/disaccharide and 100 micromolar glucoprotein)”.
As for Bovine submaxillary mucin, the “ELISA response” value in assay [1] is given as “a response in which absorbance value is increased was observed”. Besides, the “Erythrocyte agglutination inhibition concentration” value in the assay on lectin PPA (setting [4]) came to 1.3 µM. In addition, the “inhibition of agglutination (in words)” value in the assay with lectin PPA is “inhibited the agglutination”.
Take “Fetuin: glycoprotein with NeuAc, does not contain N-glycolylneuraminic acid”: in assay [1], the “ELISA response” value was “no response occurred”. The “Erythrocyte agglutination inhibition concentration” value with lectin PPA (setting [3]) is “— (The negative sign (−) means that there is no hemagglutination-inhibition for 100 millimolar monosaccharide/disaccharide and 100 micromolar glucoprotein)”.
As to “Thyroglobulin: glycoprotein containing N-glycolylneuraminic acid”, in the assay on lectin PPA (setting [4]), the “Erythrocyte agglutination inhibition concentration” value is 0.4 µM. In the assay on lectin PPA, the “inhibition of agglutination (in words)” value is recorded as “inhibited the agglutination”.
